Reference: patent US20230203560A1, “GLUCOSYL ESTERS FOR INFECTION SCREENING” (Board of Regents, The University of Texas System, priority 2020, published 2023)

How the values were obtained:
leukocyte esterase (LE) [1] = assay: Electrochemical LE assay in human urine: glucose released from glucosyl ester, read on glucose test strip with potentiostat; format: biochemical; conditions: for sample incubation time with ester to yield enough glucose to be above the detection limit of the potentiostat/glucose strip system: human urine spiked with LE, 5.5 mM ester, glucose detection limit 5 μM
Protocol: (§1) The human leukocyte suspension in 154 mM NaCl solution (cat. No. MBS173116, 0.0867 mg mL^−1 leukocyte esterase (LE) protein, 4×10^8 WBC mL^−1) was purchased from MyBioSource (San Diego, Calif.). The suspension was diluted 10 times with a 90:10 vol. % mixture of 50 mM phosphate buffer saline (PBS, pH 7.40, 154 mM NaCl) solution and dimethylsulfoxide, left for 10 min to lyse the leukocytes chemically, sonicated for 30 s with a Q125 Qsonica probe (20% power) to further lyse them mechanically, and centrifuged at 15 000×g for 30 min. The resulting supernatant that contained LE was stored at −20° C.
The human synovial fluid (DLS0092658) was purchased from Discovery Life Sciences (Los Osos, Calif.) and stored at −70° C. when not in use. The clean-catch midstream portion of human urine (˜15.0 mL) was collected early in the morning in a 50.0-mL sterile centrifuge tube (Fisher Scientific, Pittsburgh, Pa.) centrifuged at 600×g for 5 min, and the supernatant was stored at −20° C. The synovial fluid and urine were spiked with known amount of LE before the analysis.
Electrochemical Measurements. The glucose strip was inserted into an electronic holder (DropSens, Llanera, Spain), which was then connected to a CHE 832B potentiostat (other potentiostats could also be used). The strip was used in a 2-electrode mode with the counter and reference electrodes connected together as a single cathode and a working electrode serving as an anode (the strip's fill-detector electrode was not used). The potential applied to a working electrode was equal to 0.15 V vs. strip's reference/counter electrode.
The 0.15 V potential was applied to a glucose strip, which was then contacted at time t=0 s with a small drop of sample (˜10 μL) that was placed on a Petri dish (FIG. 2). The amperogram obtained in such a way was integrated between t=2 and t=22 s to determine the charge Q flowing through the strip. Two charges were always determined: Q(ester) for a sample incubated with 5.5 mM ester for 5 min, and Q(no ester) for an original sample without ester. The difference in charge ΔQ [=Q(ester)−Q(no ester)] was proportional to the enzymatic activity of LE in a sample.
The samples were incubated with each ester to release glucose in the direct proportion to the enzymatic activity of LE in a sample. The released glucose was then detected at a commercial glucose test strip. A laboratory potentiostat was used to read the glucose strip. The strip was inserted in an electronic holder to facilitate the measurements (FIG. 2). Such a strip-potentiostat measuring system provided a much lower limit of glucose detection (5.0 μM, S/N=3; FIG. 3A) and a linear range at least up to 100 μM glucose (FIG. 3B), which allowed for a much shorter (minutes) incubation times (FIG. 4).

leukocyte esterase (LE) [2] = assay: Electrochemical LE assay in human synovial fluid: glucose released from glucosyl ester, read on glucose test strip with potentiostat; format: biochemical; conditions: human synovial fluid spiked with LE; 5.5 mM ester
Protocol: as §1
The human synovial fluid (DLS0092658) was purchased from Discovery Life Sciences (Los Osos, Calif.) and stored at −70° C. when not in use. […]
The 0.15 V potential was applied to a glucose strip, which was then contacted at time t=0 s with a small drop of sample (˜10 μL) that was placed on a Petri dish (FIG. 2). […] Two charges were always determined: Q(ester) for a sample incubated with 5.5 mM ester for 5 min, and Q(no ester) for an original sample without ester. […]
The samples were incubated with each ester to release glucose in the direct proportion to the enzymatic activity of LE in a sample. The released glucose was then detected at a commercial glucose test strip. A laboratory potentiostat was used to read the glucose strip. […]

SMILES	sample incubation time with ester to yield enough glucose to be above the detection limit of the potentiostat/glucose strip system (leukocyte esterase (LE) [1]) [min]	sample incubation time with ester before reading the glucose strip (leukocyte esterase (LE) [2]) [min]	kinetics of the enzymatic reaction of LE with the ester, compared to ester α (leukocyte esterase (LE) [1]; ascribed from longer incubation time and lower calibration slope)	calibration slope (ΔQ vs LE concentration) lower than with ester α (leukocyte esterase (LE) [1]; human urine, ester γ 10 min vs ester α 5 min incubation (FIG. 8)) [%]
Cc1ccc(S(=O)(=O)N[C@@H](C)C(=O)OCCCC(=O)O[C@@H]2O[C@H](CO)[C@@H](O)[C@H](O)[C@H]2O)cc1 [ester α, (2S,3R,4S,5S,6R)-3,4,5-trihydroxy-6-(hydroxymethyl)oxan-2-yl 4-{[(2S)-2-(4-methylbenzenesulfonamido)propanoyl]oxy}butanoate]	5	5		
Cc1ccc(S(=O)(=O)N[C@@H](C)C(=O)OCCNC(=O)O[C@H]2O[C@H](CO)[C@@H](O)[C@H](O)[C@H]2O)cc1 [ester γ, 2-[({[(2R,3R,4S,5S,6R)-3,4,5-trihydroxy-6-(hydroxymethyl)oxan-2-yl]oxy}carbonyl)amino]ethyl (2S)-2-(4-methylbenzenesulfonamido)propanoate]	10		slower kinetics	~10
